Experimental data: patent US20230008317A1, “Z-STILBENE AMPK ACTIVATOR COMPOUNDS, COMPOSITIONS, METHODS AND USES THEREOF” (SOCIETE DES PRODUITS NESTLE S.A., priority 2019, published 2023)

What was measured:
AMPKα2β1γ1 = biological target: T1, AMPKα2β1γ1 (Homo sapiens, UniProt P54619+P54646+Q9Y478); assay: HTRF KinEASE activation assay with bacterially-expressed, phosphorylated purified AMPKα2β1γ1 complex; type: biochemical; conditions: varying concentrations, 30 mins incubation, cell-free; FIG. 1
T1 construct: His; made in house
Experimental: Varying concentrations of compound 1 was incubated with phosphorylated purified AMPK α2β1γ1 for 30 mins. AMPK activity was determined using the HTRF KinEASE assay kit and results are presented as the ratio of 665/620 nm (STK1 phosphorylation).
The AMPKα2β1γ1 complex was expressed in bacteria and purified through the His-α subunit by nickel purification, purified through gel filtration and phosphorylated by incubation with CaMKKβ, and then further purified through a final gel filtration purification step. Phosphorylated purified AMPK was incubated with varying concentrations of ligand for 30 mins along with substrate and reagents from the HTRF-KinEASE Cisbio assay kit (STK S1 Kit). Phosphorylation of the substrate was measured by incubating with donor and acceptor antibodies for 2 h at room temperature as per the manufacturer's protocol (and Coulerie et al., (2016), see below) and phosphorylated peptide detected by performing HTRF.

[1] = test system: U-2 OS Flp-In T-REx cells (phosphorylation of acetyl-CoA carboxylase, ACC); assay: pACC HTRF assay: phosphorylation of the AMPK substrate ACC in U-2 OS Flp-In T-REx cells; type: cell-based; conditions: varying concentrations, 30 mins at 37 C, media lacking FBS; FIG. 2
Experimental: U-2 OS cells were treated with varying concentrations of compound 1 for 30 mins at 37 C. Phosphorylation of ACC was assessed using the HTRF Cisbio (pACC kit).
U-2 OS Flp-In T-REx cells were seeded at 50 K in a 96-well plate and left overnight at 37 C in DMEM GlutaMAX (Thermo Fisher Scientific) supplemented with 10% (vol/vol) FBS and 100 U/ml penicillin G, and 100 μg/ml streptomycin. Cells were treated for 30 mins with varying concentrations of compound 1 in media lacking FBS and then cells were lysed in 50 μl of Cisbio lysis buffer #1 supplemented with blocking solution as per the manufacturer's protocol (Cisbio). Cells were lysed for 30 mins at room temperature before 16 μl of lysate was incubated with 4 μl of the HTRF antibodies (1:40 dilution of the acceptor and donor (p)ACC antibodies, as per the manufacturers protocol). Lysates were incubated overnight with the antibodies before 665 nm/620 nm ratio was determined using a MolecularDevices i3 plate reader (with a HTRF cartridge add-on). The results are plotted as fold activation compared to the respective AMPK complex without any compound.

T1 sequence (P54646 whole entry): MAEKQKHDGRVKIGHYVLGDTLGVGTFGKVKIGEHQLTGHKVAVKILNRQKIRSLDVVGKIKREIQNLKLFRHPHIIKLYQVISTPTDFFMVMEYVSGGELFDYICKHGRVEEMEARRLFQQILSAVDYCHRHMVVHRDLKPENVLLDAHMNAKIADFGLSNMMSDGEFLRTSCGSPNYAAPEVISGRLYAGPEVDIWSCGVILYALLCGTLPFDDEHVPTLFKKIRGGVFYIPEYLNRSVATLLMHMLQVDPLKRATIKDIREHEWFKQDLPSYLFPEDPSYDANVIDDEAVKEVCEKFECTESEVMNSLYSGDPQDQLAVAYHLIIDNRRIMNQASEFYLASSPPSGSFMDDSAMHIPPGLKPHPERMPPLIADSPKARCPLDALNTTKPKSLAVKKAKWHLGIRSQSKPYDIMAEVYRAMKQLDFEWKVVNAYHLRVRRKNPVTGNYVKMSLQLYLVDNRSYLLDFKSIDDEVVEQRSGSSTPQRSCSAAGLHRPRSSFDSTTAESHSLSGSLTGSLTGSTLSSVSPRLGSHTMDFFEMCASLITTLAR
T1 sequence (Q9Y478 whole entry): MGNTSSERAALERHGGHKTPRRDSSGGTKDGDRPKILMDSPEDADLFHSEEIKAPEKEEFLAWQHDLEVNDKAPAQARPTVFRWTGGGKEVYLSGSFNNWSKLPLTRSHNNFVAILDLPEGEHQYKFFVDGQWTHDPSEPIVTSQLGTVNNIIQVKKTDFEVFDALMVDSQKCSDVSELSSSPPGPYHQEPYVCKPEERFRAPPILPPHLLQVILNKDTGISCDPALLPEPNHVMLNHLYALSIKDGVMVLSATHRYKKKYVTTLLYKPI
T1 sequence (P54619 whole entry): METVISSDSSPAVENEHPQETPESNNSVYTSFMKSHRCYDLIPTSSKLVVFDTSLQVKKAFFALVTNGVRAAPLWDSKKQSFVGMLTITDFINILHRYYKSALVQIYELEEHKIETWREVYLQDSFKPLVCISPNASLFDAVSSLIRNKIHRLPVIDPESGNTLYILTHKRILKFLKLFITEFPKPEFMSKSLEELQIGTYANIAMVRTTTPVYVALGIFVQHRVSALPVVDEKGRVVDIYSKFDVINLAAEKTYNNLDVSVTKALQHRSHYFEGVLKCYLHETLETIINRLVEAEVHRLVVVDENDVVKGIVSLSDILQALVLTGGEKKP

AMPK activity (STK1 substrate phosphorylation, 665 nm/620 nm ratio) (AMPKα2β1γ1): allosterically activates AMPKα2β1γ1
SMILES: COc1cc(O)cc(/C=C\c2cccc(O)c2)c1 [compound 1, (Z)-3,3′-Dihydroxy-5-methoxystilbene]
Phosphorylation of ACC (fold activation relative to untreated cells) [1]: increased the phosphorylation of the AMPK substrate, ACC, in a dose-dependent manner
